Tests used:
[1] = tested on: NR4A1 knockout male mice after plantar incision; assay: Plantar incision model of postoperative pain in NR4A1 knockout mice (von Frey filaments, Hargreaves test); format: in vivo, mouse; conditions: local intraplantar injection, vs vehicle
Method: (§1) To investigate the underlying mechanisms of postoperative pain, we adopted a mouse model that is characterized by increased pain sensitivity and macrophage infiltration after a surgical incision made in the plantar aspect of the hind paw. Pain sensitivity and macrophage infiltration were evaluated in NA4A1 knockout (KO) mice. Expression and function of NR4A1 were also evaluated in neuronal and skin tissues, as well as in cultured macrophages.
(§2) We used a well-characterized animal model of postoperative pain consisting in plantar incision (FIG. 1). Specifically, FIGS. 1A-1C show an animal model of post-operative pain. FIG. 1A illustrates the experimental design depicting the plantar incision and timeline for the behavioral tests. FIG. 1B is a graph showing how, after plantar incision, mice develop mechanical hypersensitivity (assessed by von Frey filaments) and FIG. 1C is a graph showing thermal hypersensitivity (assessed by Hargreaves test). These hypersensitivities are indicative of postoperative pain and resolve in 7 days. n=6 male mice per group, One-way ANOVA, *p<0.05 (Bonferroni).
FIG. 6A is a graph showing mechanical hypersensitivity as assessed by von Frey filaments, and FIG. 6B is a graph showing thermal hypersensitivity as assessed by Hargreaves test. […]

[2] = tested on: mice after plantar incision (postoperative pain); assay: Plantar incision model of postoperative pain (von Frey filaments, Hargreaves test); format: in vivo, mouse; conditions: vs vehicle; for resolution of postoperative pain (mechanical and thermal hypersensitivity): von Frey filaments and Hargreaves test
Method: as §1
as §2, with “These hypersensitivities are indicative of postoperative pain and resolve in 7 days. n=6 male mice per group, One-way ANOVA, *p<0.05 (Bonferroni).” left out
Cutaneous application of an NA4A1 agonist accelerates the resolution of post-operative pain. […] FIG. 4B is a graph showing mechanical hypersensitivity as assessed by von Frey filaments before injection of the drug (prevention). FIG. 4C is a graph showing mechanical hypersensitivity as assessed by von Frey filaments after drug injection (acute analgesia). FIG. 4D is a graph showing thermal hypersensitivity as assessed by Hargreaves test before injection of the drug (prevention). FIG. 4E is a graph showing thermal hypersensitivity as assessed by Hargreaves test after drug injection (acute analgesia). […]
FIG. 5B is a graph showing mechanical hypersensitivity as assessed by von Frey filaments before injection of the drug (prevention), and FIG. 5C is a graph showing mechanical hypersensitivity as assessed by von Frey filaments after drug injection (acute analgesia). FIG. 5D is a graph showing thermal hypersensitivity as assessed by Hargreaves test before injection of the drug (prevention). FIG. 5D is a graph showing thermal hypersensitivity as assessed by Hargreaves test after drug injection (acute analgesia). […]

Peritoneal macrophages = assay: Expression of pro-inflammatory mediators in cultured peritoneal macrophages activated with LPS; format: cell-based, mouse; conditions: Cyto B 10 μg/ml, LPS 20 ng/ml
Method: Peritoneal macrophages were cultured and incubated with vehicle control, cytosporone B (Cyto B, 10 μg/ml) or/and the macrophage activator lipopolysaccharide (LPS, 20 ng/ml). n=4-8 cultures per group, One-way ANOVA, *p<0.05 (Vehicle vs. LPS, Bonferroni), #p<0.05 (LPS VS. LPS+Cyto B, Bonferroni).

[3] = tested on: mice with paclitaxel-induced mechanical allodynia; assay: Paclitaxel-induced neuropathic pain (CINP) model, mechanical allodynia; format: in vivo, mouse; conditions: male WT mice, vs PBS
Source text: FIGS. 9A and 9B are graphs showing that NR4A1 deficiency exacerbates chemotherapy-induced neuropathic pain and neuroinflammation in DRG tissue.
FIGS. 10A and 10B are graphs showing that NA4A1 activation by Cytosporone B (Csn-B) prevents and reverses chemotherapy induced neuropathic pain. […]

SMILES: CCCCCCCC(=O)c1c(O)cc(O)cc1CC(=O)OCC [Cytosporone B]
- resolution of postoperative pain (mechanical and thermal hypersensitivity) [1]: fails to resolve postoperative pain
- resolution of postoperative pain (mechanical and thermal hypersensitivity) ([2]; female mice, local intraplantar injection): accelerates the resolution of postoperative pain
- resolution of postoperative pain (mechanical and thermal hypersensitivity) ([2]; male mice, local intraplantar injection (i.pl.)): accelerates the resolution of postoperative pain
- effect on postoperative pain (mechanical and thermal hypersensitivity) ([2]; male mice, systemic intraperitoneal injection): limited effects on postoperative pain
- expression of pro-inflammatory mediators in macrophages (Peritoneal macrophages): decreases the expression of pro-inflammatory mediators
- prevention of mechanical allodynia (chemotherapy induced neuropathic pain) ([3]; paclitaxel 2 mg/kg every other day x4, Csn-B intrathecal (i.t.) given with paclitaxel): significantly prevent
- reversal of mechanical allodynia (chemotherapy induced neuropathic pain) ([3]; treatment 14 d after first paclitaxel delivery, different doses of Csn-B): reverse

From patent US12611393B2, “Treatment of pain by targeting NR4A1” (UNIVERSITY OF CINCINNATI, priority 2019, dated 2026)
